Results published in patent publication US20130184337A1, “SODIUM ASCORBATE STIMULATION OF ELASTOGENESIS” (THE HOSPITAL FOR SICK CHILDREN, priority 2012, published 2013).
“Also recorded” adds a separate entry of the source. Blank lines part the entries; values can stand above or below the molecule they belong to.

What was measured:
[1] = tested on: normal dermal fibroblasts; assay: Elastic fiber deposition (immuno-staining morphometry, [3H]-valine insoluble elastin) in monolayer cultures; assay type: cell-based, human; settings: for elastogenic effects of 100 μM SA after pre-treatment with the inhibitor (mRNA, tropoelastin, insoluble elastin, elastic fibers): inhibitor pre-incubation then 100 μM SA, probenecid 400 μM
Description: (§1) Cell Cultures—Fibroblasts initially grew out from the explants of these full thickness skin biopsies and were maintained. The primary cultures of fat-derived fibroblasts obtained from Thermogenesis (Rancho Cordova, Calif.) were also tested. In all described experiments, 2-4 passages of both kinds of fibroblasts were used. In experiments aimed at assessing ECM production, cells were initially plated at a concentration of 100,000 cells/dish.
(§2) Immuno-staining—All cultures maintained in the presence and absence of indicated reagents were either fixed in cold 100% methanol at −20° C. (for detection of elastin) or in 4% paraformaldehyde at room temperature (for detection of collagen I). The multiple parallel cultures were then incubated with 10 μg/ml of polyclonal antibody to tropoelastin (Elastin Products, Owensville, Mich.), or polyclonal antibody to collagen type I (Chemicon, Temecula, Calif.). Cultures were then incubated with the respective fluorescein-conjugated goat anti-rabbit, goat anti-mouse, or rabbit anti-goat secondary antibodies. Nuclei were counterstained with propidium iodide (Sigma, Sigma, St. Louis, Mo.). All of the cultures were then examined with a Nikon Eclipse E1000 microscope attached to a cooled CCD camera (QImaging, Retiga EX) and analyzed by the computer-generated morphometric analysis system (Image-Pro Plus software, Media Cybernetics, Silver Springs, Md.) as previously described.
Quantitative Assays of Insoluble Elastin—Fibroblasts were grown to confluency in 35-mm culture dishes (100,000 cells/dish). Next, 2 μCi of [3H]-valine/ml (Amersham Biosciences Ltd. Oakville, Canada), were added to each dish along with or without the indicated treatments. At the end of each experiment, the levels of metabolically labeled NaOH-insoluble elastin present in individual cultures were assayed and normalized per their DNA content.

[2] = tested on: reactive oxygen species (ROS); assay: Intracellular ROS with CM-H2DCFDA probe (fluorescence microscope, flow cytophotometry); assay type: cell-based, human
Description: Quantification of Intracellular free radicals-reactive oxygen species (ROS)—To assess the levels of ROS, quadruplicate cultures of normal skin fibroblasts were exposed to 10 μM of ROS-sensitive CM-H2DCFDA fluorescent probe (Molecular Probes, Eugene, Oreg.) for 30 minutes. This probe passively diffuses into the cell interior and only upon oxidation is a fluorescent product released that can be visualized under a fluorescent microscope or captured by flow cytophotometry when excited at 480 nm. Fibroblasts were then maintained for 30 minutes in the presence or absence of 400 μM probenecid, then incubated either for 2 or 24 hours with and without 100 μM AA or 100 μM SA. At the end of these periods the images were captured using a fluorescent microscope under identical parameters of contrast and brightness. The ROS production was also assessed by flow cytophotometry (λ excitation 480 nm; λ emission 520 nm), using FACSCalibur, Beckton Dickinson Instrument.

IGF-1 receptor = molecular target: T1, IGF-1 receptor (Homo sapiens, UniProt P08069); assay: IGF-1R phosphorylation (immuno-precipitation, anti-phospho-tyrosine Western blot); assay type: cell-based; settings: pretreated and maintained with inhibitor, 100 μM SA
T1 construct: immuno-precipitated with antibody to β subunit of IGF-1R and detected by Western blotting with anti-phospho-tyrosine antibody; endogenous in cells; host or cells: cultured dermal fibroblasts
T1 sequence (P08069 741-1367 limits assumed): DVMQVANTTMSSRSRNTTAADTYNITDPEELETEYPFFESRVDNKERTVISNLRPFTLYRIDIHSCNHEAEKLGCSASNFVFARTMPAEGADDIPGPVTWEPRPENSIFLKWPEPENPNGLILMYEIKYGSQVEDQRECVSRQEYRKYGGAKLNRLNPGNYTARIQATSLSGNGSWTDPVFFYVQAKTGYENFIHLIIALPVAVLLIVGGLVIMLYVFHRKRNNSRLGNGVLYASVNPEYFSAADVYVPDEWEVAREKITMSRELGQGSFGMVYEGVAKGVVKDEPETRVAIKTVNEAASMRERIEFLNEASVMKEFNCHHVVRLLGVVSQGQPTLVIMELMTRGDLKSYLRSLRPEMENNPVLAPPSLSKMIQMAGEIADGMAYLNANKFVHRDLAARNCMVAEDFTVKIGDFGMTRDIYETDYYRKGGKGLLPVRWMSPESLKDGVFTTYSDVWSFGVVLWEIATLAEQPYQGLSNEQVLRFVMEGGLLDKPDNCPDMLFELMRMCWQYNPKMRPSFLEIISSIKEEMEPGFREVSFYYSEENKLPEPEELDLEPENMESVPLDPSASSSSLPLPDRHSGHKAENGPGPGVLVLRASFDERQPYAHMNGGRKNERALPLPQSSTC
T1 sequence (P08069 31-736 partner limits assumed): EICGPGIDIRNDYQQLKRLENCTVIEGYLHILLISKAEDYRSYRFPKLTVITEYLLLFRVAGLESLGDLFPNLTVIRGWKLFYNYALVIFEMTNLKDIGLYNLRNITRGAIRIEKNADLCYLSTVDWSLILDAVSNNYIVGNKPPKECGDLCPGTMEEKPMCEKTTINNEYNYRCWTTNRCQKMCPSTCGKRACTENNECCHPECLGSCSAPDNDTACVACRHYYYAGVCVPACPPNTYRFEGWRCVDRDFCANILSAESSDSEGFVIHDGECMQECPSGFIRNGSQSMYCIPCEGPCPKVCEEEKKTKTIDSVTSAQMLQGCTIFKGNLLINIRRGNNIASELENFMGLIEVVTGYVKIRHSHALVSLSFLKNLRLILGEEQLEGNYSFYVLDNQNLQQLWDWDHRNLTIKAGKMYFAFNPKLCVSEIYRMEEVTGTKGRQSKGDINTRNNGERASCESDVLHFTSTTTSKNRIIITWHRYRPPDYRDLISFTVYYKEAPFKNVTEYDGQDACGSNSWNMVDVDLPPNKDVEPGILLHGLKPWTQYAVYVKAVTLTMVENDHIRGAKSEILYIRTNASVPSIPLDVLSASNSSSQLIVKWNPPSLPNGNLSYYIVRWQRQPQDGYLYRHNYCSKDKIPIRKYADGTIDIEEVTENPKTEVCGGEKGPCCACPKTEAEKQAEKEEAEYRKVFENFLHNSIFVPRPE
Description: At the end of each experiment cells were submerged in the lysis buffer containing a broad-range phosphatase inhibitor. The polyclonal antibodies recognizing either the β subunits of the IGF-IR or the β subunit of the insulin receptor were immobilized on separate sets of the IgG-bearing magnetic beads (Invitrogen Canada Inc, Burlington, ON) and then incubated for 1 hour with the aliquots of the cell lysates containing 400 μg of protein as described in the manufacturer protocol. The beads bearing the resulting immuno-precipitation products were re-suspended in sample buffer and the released proteins were resolved with SDS-PAGE and subjected to Western blotting with a monoclonal anti-p-Tyr (PY99) antibody from Santa Cruz Biotechnology Inc. (Santa Cruz, Calif.) and then with HRP-conjugated goat anti-mouse secondary antibody.

[3] = tested on: normal dermal fibroblasts; assay: Collagen fiber deposition (immuno-staining of collagen type I, morphometry); assay type: cell-based, human
Description: as §1, with “cells/dish. Confluent cultures were then maintained either in serum-free medium (DMEM) or in medium supplemented with 5% FBS in the presence of different reagents that were added 1 hour before treatments with SA.” for “cells/dish.”
as §2

explants of dermal scars = assay: Organ culture of skin explants (histochemistry, insoluble elastin); assay type: cell-based, human; settings: 1 mM DMOG alone
Description: Organ culture of skin explants—Fragments of normal skin, stretch-marked skin and dermal scars collected during plastic surgery procedures were cut into multiple 4 mm2 pieces and maintained for 7 days in DMEM medium containing 5% FBS, […] The parallel quadruplicate explants from each experimental group were additionally maintained in the presence 2 μCi of [3H]-valine/ml and then subjected to the assay of insoluble elastin. The parallel explants from each experimental groups were also evaluated after pentachrome Movat's staining which allows for clear marking of elastic fibers. In each experimental group, 50 sections derived from quadruplicate explants were analyzed.

[4] = tested on: fibroblasts derived from dermal stretch marks; assay: Collagen and elastic fiber deposition in stretch-mark fibroblast cultures; assay type: cell-based, human; settings: 200 μM, 24 hour-old cultures
Description: Cell Cultures-Fibroblasts initially grew out from the explants of these full thickness skin biopsies and were maintained. The primary cultures of fat-derived fibroblasts obtained from Thermogenesis (Rancho Cordova, Calif.) were also tested. In all described experiments, 2-4 passages of both kinds of fibroblasts were used. In experiments aimed at assessing ECM production, cells were initially plated at a concentration of 100,000 cells/dish. […] Immuno-staining-All cultures maintained in the presence and absence of indicated reagents were either fixed in cold 100% methanol at -20° C. (for detection of elastin) or in 4% paraformaldehyde at room temperature (for detection of collagen I). The multiple parallel cultures were then incubated with 10 μg/ml of polyclonal antibody to tropoelastin (Elastin Products, Owensville, Mich.), or polyclonal antibody to collagen type I (Chemicon, Temecula, Calif.). Cultures were then incubated with the respective fluorescein-conjugated goat anti-rabbit, goat anti-mouse, or rabbit anti-goat secondary antibodies. Nuclei were counterstained with propidium iodide (Sigma, Sigma, St. Louis, Mo.). All of the cultures were then examined with a Nikon Eclipse […] microscope attached to a cooled CCD camera (QImaging, Retiga EX) and analyzed by the computer-generated morphometric analysis system (Image-Pro Plus software, Media Cybernetics, Silver Springs, Md.) as previously described. Quantitative Assays of Insoluble Elastin-Fibroblasts were grown to confluency in 35-mm culture dishes (100,000 cells/dish). Next, 2 μCi of [3H]-valine/ml (Amersham Biosciences Ltd. Oakville, Canada), were added to each dish along with or without the indicated treatments. At the end of each experiment, the levels of metabolically labeled NaOH-insoluble elastin present in individual cultures were assayed and normalized per their DNA content.

[5] = DMOG added along with 100 μM SA

Molecule: IGF-1: human IGF-I from Sigma-Aldrich, elastogenic stimulator
- elastogenic effects ([1]; 50 ng/ml exogenous IGF-1, 24-hour treatment, 5% FBS): strong elastogenic effects

Molecule: CCCN(CCC)S(=O)(=O)c1ccc(C(=O)O)cc1 [probenecid, Probenecid, reference compound]
- SA-induced decrease of ROS after probenecid pre-incubation ([2]; probenecid pre-incubation, then 100 μM SA for 2 hours): could not be observed
- basic deposition of elastic fibers ([1]; 100-400 μM probenecid alone, 24 hours, versus untreated control): did not demonstrate any decrease in their basic deposition of elastic fibers
- elastogenic effects of 100 μM SA after pre-treatment with the inhibitor (mRNA, tropoelastin, insoluble elastin, elastic fibers) ([1]; 5% FBS): eliminated the elastogenetic effects of 100 μM SA; also recorded: averts the induction of elastogenic effects

Molecule: COc1cc([C@@H]2c3cc4c(cc3[C@H](O)[C@H]3COC(=O)[C@@H]23)OCO4)cc(OC)c1OC [PPP, reference compound]
- SA-induced enhancement of IGF-1R phosphorylation in inhibitor-pretreated cultures (IGF-1 receptor): eliminated

Molecule: COC(=O)CNC(=O)C(=O)OC [DMOG, reference compound]
- SA-enhanced production of elastic fibers [1, 5]: did not interfere with the enhanced production of elastic fibers; also recorded: does not diminish the elastogenic effect of SA
- deposition of collagen fibers [3, 5]: inhibits the deposition of collagen fibers
- elastic fibers in ECM (explants of dermal scars): did not revealed any elastic fibers

- SA-induced enhancement of IGF-1R phosphorylation in inhibitor-pretreated cultures (IGF-1 receptor): eliminated
Molecule: CC(C)(C)n1nc(-c2ccc(Cl)cc2)c2c(N)ncnc21 [PP2, reference compound]
- elastogenic effects of 100 μM SA after pre-treatment with the inhibitor (mRNA, tropoelastin, insoluble elastin, elastic fibers) ([1]; 5% FBS): did not trigger elastogenic effects; also recorded: abolish all elastogenic effects

Molecule: TGF-[…]1: elastogenic stimulator (TGF-β1, Greek letter lost)
- elastogenesis ([1]; 1 ng/ml TGF-[…]1): increase in elastogenesis

Molecule: COc1ccc(CNc2nc(N(CCO)CCO)nc3c2ncn3C(C)C)cc1 [CVT313, reference compound]
- elastogenic effects of 100 μM SA after pre-treatment with the inhibitor (mRNA, tropoelastin, insoluble elastin, elastic fibers) ([1]; 5% FBS): eliminated elastogenic effects of 100 μM SA

Molecule: O=C1O[C@H]([C@@H](O)CO)C(O)=C1O [AA, L-ascorbic acid]
- production of elastic fibers / elastogenesis [4]: selective inhibition of new elastogenesis
- levels of intracellular ROS ([2]; 100 μM, 2 hours): did not display any decrease in ROS contents
- deposition of immuno-detected collagen fibers ([3]; 100 μM, 24-hour-old cultures, 5% FBS): stimulated collagen deposition
